Measurements from US10953011B2, “Methods of treating virally associated cancers with histone deacetylase inhibitors” (priority 2019, dated 2021).

Experiments:
HDAC11 = molecular target: T1, HDAC11 (Homo sapiens, UniProt Q96DB2); test: in vitro HDAC inhibition assay (fluorescence); format: biochemical; details: 1 h pre-incubation; 2 μM HDAC Substrate Class 2a; read-out: IC50 (μM) HDAC11
T1 sequence (Q96DB2 1-347): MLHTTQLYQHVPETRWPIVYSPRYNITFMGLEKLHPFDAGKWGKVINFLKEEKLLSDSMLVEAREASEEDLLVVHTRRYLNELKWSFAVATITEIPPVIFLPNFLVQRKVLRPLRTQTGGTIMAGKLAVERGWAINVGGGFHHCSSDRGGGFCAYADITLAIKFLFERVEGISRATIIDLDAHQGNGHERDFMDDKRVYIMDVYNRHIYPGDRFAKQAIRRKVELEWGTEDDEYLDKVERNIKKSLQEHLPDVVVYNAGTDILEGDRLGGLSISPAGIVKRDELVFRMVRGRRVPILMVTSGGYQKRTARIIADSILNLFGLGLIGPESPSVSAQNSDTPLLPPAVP
Experimental: (§1) Briefly, all of the compounds are dissolved in DMSO. A series of dilutions of the compounds were prepared with 10% DMSO in HDAC assay buffer and 5 μl of the dilution was added to a 50 μl reaction so that the final concentration of DMSO is 1% in all of reactions. The compounds were pre-incubated in duplicate at RT for 1 hour in a mixture containing HDAC assay buffer, 5 μg BSA, HDAC enzyme (see Table 7) and a the particular HDACi. After 1 hour, the enzymatic reactions were initiated by the addition of HDAC substrate (BPS Bioscience) to a final concentration of 10 μM or 2 μM. The enzymatic reaction proceeded for 30 minutes at 37° C.
(§2) HDAC activity assays were performed in duplicates at each concentration. The fluorescent intensity data were analyzed using the computer software, Graphpad Prism. In the absence of the compound, the fluorescent intensity (Ft) in each data set was defined as 100% activity. In the absence of HDAC, the fluorescent intensity (Fb) in each data set was defined as 0% activity. The percent activity in the presence of each compound was calculated according to the following equation: % activity=(F−Fb)/(Ft−Fb), where F=the fluorescent intensity in the presence of the compound.
(§3) The values of % activity versus a series of compound concentrations were then plotted using non-linear regression analysis of Sigmoidal dose-response curve generated with the equation Y=B+(T−B)/1+10^((Log EC50-X)×Hill Slope), where Y=percent activity, B=minimum percent activity, T=maximum percent activity, X=logarithm of compound and Hill Slope=slope factor or Hill coefficient. The IC50 value was determined by the concentration causing a half-maximal percent activity.

HDAC4 = HDAC4 (Homo sapiens, UniProt P56524); test: in vitro HDAC inhibition assay (fluorescence); format: biochemical; details: 1 h pre-incubation; 2 μM HDAC Substrate Class 2a; read-out: IC50 (μM) HDAC4
Chain of HDAC4 (P56524 whole entry): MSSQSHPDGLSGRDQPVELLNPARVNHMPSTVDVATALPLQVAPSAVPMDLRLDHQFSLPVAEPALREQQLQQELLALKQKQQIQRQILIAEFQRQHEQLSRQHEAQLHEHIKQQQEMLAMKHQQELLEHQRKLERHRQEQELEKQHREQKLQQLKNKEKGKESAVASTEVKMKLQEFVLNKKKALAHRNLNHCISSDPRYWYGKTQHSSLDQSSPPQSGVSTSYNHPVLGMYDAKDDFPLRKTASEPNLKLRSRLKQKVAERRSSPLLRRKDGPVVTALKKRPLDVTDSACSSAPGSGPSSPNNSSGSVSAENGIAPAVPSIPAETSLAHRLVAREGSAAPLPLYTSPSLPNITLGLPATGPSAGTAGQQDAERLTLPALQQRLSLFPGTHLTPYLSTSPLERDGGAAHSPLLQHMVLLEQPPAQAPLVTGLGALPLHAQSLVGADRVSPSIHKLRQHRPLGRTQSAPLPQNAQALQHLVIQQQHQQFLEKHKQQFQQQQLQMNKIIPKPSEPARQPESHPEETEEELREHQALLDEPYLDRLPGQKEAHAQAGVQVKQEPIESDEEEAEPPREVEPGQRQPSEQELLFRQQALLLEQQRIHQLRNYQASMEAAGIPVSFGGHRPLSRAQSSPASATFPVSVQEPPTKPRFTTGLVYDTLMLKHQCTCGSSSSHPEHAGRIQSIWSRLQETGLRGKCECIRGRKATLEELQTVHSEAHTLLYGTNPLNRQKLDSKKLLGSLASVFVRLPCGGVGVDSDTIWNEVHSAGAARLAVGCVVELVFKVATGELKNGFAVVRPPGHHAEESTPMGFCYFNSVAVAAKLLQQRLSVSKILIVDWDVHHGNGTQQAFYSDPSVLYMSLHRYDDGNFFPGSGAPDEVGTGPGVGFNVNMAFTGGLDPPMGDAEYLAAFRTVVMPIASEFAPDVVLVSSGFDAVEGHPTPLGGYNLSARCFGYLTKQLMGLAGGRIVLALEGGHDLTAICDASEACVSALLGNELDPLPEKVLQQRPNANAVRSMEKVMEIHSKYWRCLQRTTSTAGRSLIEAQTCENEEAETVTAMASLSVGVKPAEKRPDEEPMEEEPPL
Experimental: as §1, §2, §3

HDAC5 = HDAC5 (Homo sapiens, UniProt Q9UQL6); test: in vitro HDAC inhibition assay (fluorescence); format: biochemical; details: 1 h pre-incubation; 2 μM HDAC Substrate Class 2a; read-out: IC50 (μM) HDAC5
Chain of HDAC5 (Q9UQL6 whole entry): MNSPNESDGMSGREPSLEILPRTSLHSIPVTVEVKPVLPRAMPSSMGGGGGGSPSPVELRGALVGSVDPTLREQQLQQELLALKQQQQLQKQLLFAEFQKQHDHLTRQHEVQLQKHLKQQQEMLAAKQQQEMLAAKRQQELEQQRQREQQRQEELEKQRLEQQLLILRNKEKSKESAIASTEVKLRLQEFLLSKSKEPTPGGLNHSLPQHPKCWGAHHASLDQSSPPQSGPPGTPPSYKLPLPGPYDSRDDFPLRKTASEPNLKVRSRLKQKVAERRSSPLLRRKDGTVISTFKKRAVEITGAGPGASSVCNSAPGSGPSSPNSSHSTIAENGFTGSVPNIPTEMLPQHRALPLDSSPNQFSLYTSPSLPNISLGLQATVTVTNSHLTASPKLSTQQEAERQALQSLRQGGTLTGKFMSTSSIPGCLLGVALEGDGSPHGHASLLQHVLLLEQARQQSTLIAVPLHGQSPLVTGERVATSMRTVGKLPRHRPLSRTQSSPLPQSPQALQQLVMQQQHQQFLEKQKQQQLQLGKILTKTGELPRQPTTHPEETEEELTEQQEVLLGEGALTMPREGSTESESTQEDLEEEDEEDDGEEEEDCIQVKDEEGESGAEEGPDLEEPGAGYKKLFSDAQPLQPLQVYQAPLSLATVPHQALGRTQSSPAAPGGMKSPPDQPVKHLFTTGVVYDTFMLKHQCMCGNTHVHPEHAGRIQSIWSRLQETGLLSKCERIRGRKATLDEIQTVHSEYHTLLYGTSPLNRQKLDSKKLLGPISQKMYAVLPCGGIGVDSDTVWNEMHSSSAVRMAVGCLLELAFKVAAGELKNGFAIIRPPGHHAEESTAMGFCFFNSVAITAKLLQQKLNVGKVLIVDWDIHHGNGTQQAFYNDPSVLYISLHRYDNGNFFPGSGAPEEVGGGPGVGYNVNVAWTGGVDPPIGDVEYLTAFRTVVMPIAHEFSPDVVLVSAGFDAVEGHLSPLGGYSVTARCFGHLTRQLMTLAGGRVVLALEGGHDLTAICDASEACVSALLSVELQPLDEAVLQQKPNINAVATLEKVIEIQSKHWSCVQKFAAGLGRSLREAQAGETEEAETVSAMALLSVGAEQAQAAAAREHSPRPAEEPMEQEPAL
Experimental: as §1, §2, §3

HDAC9 = HDAC9 (Homo sapiens, UniProt Q9UKV0); test: in vitro HDAC inhibition assay (fluorescence); format: biochemical; details: 1 h pre-incubation; 2 μM HDAC Substrate Class 2a; read-out: IC50 (μM) HDAC9
Chain of HDAC9 (Q9UKV0 whole entry): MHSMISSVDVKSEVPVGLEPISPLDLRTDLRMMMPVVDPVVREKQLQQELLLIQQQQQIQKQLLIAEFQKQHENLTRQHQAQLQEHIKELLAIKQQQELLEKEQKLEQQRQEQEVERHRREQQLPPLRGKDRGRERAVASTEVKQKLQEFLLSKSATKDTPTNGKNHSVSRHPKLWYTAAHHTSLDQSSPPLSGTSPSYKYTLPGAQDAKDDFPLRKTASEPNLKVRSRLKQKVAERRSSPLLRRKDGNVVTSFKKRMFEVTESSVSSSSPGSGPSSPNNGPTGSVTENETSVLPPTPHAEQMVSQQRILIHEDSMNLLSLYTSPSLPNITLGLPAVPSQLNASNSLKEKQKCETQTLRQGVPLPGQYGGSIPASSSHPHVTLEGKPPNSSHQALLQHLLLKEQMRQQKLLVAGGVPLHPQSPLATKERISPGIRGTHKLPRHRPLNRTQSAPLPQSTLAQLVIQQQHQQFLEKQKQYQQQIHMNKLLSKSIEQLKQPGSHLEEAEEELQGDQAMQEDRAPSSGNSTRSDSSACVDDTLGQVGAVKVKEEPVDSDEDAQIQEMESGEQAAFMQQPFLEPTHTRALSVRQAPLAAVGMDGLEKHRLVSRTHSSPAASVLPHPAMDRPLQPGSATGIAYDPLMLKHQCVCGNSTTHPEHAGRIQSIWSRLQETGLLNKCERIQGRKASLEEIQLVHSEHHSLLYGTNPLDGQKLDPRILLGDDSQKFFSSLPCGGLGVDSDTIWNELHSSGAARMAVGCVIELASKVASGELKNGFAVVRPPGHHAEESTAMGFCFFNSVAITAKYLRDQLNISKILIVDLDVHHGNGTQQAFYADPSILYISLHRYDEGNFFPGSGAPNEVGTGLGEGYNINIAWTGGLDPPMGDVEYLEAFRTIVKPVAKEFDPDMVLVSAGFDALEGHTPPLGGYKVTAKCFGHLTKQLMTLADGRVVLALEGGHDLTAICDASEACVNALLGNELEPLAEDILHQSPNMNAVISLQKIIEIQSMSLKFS
Experimental: as §1, §2, §3

[1] = tested on: P3HR1 Burkitt's lymphoma cells; test: Cell death (7AAD) after Nstat, washout, then ganciclovir
Experimental: P3HR1 Burkitt's lymphoma cells were incubated with DMSO (solvent control) or Nstat for 3 days. After that time cell cultures were washed re-fed with ganciclovir (GCV) for an additional 3 days. All test conditions were run in triplicate. Cell death was measured by 7AAD staining.

HDAC 1-3 = details: descriptive statement; cited from earlier work
HDAC 6 = molecular target: T2, HDAC 6 (Homo sapiens, UniProt Q9UBN7); details: descriptive statement; cited from earlier work
T2 sequence (Q9UBN7 1-1215): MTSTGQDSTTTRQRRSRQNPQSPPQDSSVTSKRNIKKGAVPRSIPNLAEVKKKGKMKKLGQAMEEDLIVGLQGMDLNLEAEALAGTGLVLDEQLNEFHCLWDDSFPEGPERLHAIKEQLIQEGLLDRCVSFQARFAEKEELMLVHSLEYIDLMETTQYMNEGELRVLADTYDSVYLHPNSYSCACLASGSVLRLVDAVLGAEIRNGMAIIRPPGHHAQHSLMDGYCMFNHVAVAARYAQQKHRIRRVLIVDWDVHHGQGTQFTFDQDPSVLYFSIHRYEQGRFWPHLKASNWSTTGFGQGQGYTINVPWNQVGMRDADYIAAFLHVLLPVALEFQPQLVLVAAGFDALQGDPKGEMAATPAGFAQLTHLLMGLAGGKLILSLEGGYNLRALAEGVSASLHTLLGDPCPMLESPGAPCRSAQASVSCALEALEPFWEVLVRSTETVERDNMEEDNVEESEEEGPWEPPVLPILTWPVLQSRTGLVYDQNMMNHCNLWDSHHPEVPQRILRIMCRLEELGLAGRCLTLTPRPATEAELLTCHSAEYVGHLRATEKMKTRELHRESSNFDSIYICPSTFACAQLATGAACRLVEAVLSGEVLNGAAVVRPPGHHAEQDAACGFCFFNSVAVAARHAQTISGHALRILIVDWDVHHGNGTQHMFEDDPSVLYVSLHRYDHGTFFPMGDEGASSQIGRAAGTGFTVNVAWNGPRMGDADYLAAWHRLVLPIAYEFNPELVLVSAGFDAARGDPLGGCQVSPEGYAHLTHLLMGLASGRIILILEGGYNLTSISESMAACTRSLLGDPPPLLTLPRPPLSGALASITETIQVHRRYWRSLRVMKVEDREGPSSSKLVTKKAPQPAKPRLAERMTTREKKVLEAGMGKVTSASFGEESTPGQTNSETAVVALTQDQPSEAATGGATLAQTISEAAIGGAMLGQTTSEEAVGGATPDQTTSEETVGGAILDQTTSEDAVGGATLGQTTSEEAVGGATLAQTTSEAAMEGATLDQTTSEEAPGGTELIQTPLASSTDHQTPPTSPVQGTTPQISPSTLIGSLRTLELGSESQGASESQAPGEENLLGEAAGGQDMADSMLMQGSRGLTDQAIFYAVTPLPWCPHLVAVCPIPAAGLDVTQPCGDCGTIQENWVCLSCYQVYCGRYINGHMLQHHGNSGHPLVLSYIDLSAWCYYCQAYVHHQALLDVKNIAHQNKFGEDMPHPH

Question: With `O=C(NO)c1cnc(N2C[C@@H]3[C@H](C2)[C@H]3NCc2ccc3cc(F)ccc3n2)nc1` [Nanatinostat, 2-((1R,5S,6s)-6-(((6-fluoroquinolin-2-yl)methyl)amino)-3-azabicyclo[3.1.0]hexan-3-yl)-N-hydroxypyrimidine-5-carboxamide] as the compound, how does the IC50 (HDAC11) read?
Answer: Its IC50 is 2.8 µM.

Question: What about the IC50 (HDAC4) of the same compound?
Answer: Its IC50 is 1 µM.

Question: What about the IC50 (HDAC5) of the same compound?
Answer: Its IC50 is 0.39 µM.

Question: What about the IC50 (HDAC9) of the same compound?
Answer: The IC50 was 0.44 µM.

Question: What about the “Increase of cytotoxic activity when combined with Ganciclovir” value [1] of the same compound?
Answer: Its value is ~40%.

Question: And the “Cell cytotoxicity when combined with ganciclovir” value ([1]; EBV infected cell line, seen even after Nstat removal)?
Answer: The value was “increases cell cytotoxicity”.

Question: What about the “Activity against HDAC 1-3” value (HDAC 1-3) of the same compound?
Answer: The value was “active against HDAC 1-3”.

Question: And the “Activity against HDAC 6” value (HDAC 6)?
Answer: Its value is “not HDAC 6”.
